The record followed here is patent US20190321345A1, “GLUT4 Selective Inhibitors for Cancer Therapy” (Emory University, priority 2016, published 2019).

By EC50 is commonly meant the concentration needed to bring the measured effect to its halfway point. A word on the IC50: it is the concentration at which inhibition is half-maximal.

Series [1] has as its system MM.1S cells. Kind of series: Cell death with dexamethasone or melphalan co-treatment in MM.1S cells (AnnexinV/DAPI). It counts as cell-based. To be noted: 72 hr. How it is done: (§1) Cell death was evaluated by AnnexinV/DAPI flow cytometric staining.
(§2) IC50 studies were performed using the CellTiter-Glo assay (Promega, Madison, Wis.). 20,000 cells in 100 ul complete RPMI 1640 medium were plated per well in 96-well plates, with a concentration range of individual compounds. After 72 h incubation, 100 uL Glo reagent were added to each well and luminescence was measured using a Biotek Synergy 4 multimode plate reader. Cell number was assessed by trypan blue standing and an automatic cell counter (Biorad). For cell viability assays 0.125×10^6 cells/mL were treated with the indicated concentration of drug, washed with 1×PBS and evaluated for viability by AnnexinV/DAPI staining and flow cytometry. Data analysis was per-formed with the FCS express version 3 (De Novo software, Los Angeles).
(§3) KD of GLUT4 and glucose deprivation lead to variable suppression of the pro-survival anti-apoptotic protein MCL-1. […] Compound 20 was evaluated for sensitizing MM patient samples to ABT-199. CD38+/CD45− gated myeloma cells from myeloma patient bone marrow aspirates were evaluated for viability after 48 hrs of treatment. […] To rule out the cytotoxic effect of co-treatment of compound 20 with either ABT-199 or dexamethasone on other non-myeloma cell populations, cell viability of CD38−/CD45− and CD38−/CD45+ cells were analyzed within the MM patient sample bone marrow aspirate (FIG. 6G). […]

Series [2] deals with CD38-/CD45- and CD38-/CD45+ cells. Kind of series: Viability of normal non-myeloma cell populations in MM patient bone marrow aspirate. It counts as cell-based. The following applies: in combination with either ABT-199 or Dex. The source says: Data from patient #6 is representative of patient samples evaluated.
(§4) KD of GLUT4 and glucose deprivation lead to variable suppression of the pro-survival anti-apoptotic protein MCL-1. […] Cells resistant to glucose deprivation-induced cell death increase binding of pro-apoptotic BIM to BCL-2, facilitating sensitization to the BH3 mimetic venetoclax (ABT-199). 22 Treatment of glucose-deprived resistant cells with ABT-199 releases the additional BIM bound to BCL-2, inducing apoptosis. […] Compound 20 was evaluated for sensitizing MM patient samples to ABT-199. CD38+/CD45− gated myeloma cells from myeloma patient bone marrow aspirates were evaluated for viability after 48 hrs of treatment. […] The ability of compound 20 to sensitize MM cells and induce cell death to the commonly used steroid dexamethasone (Dex) was tested. Compound 20 treated MM.1S cells were exposed to a dose range of Dex (0.00195 μM to 1 μM) for 72 hr (FIG. 6E). […] To rule out the cytotoxic effect of co-treatment of compound 20 with either ABT-199 or dexamethasone on other non-myeloma cell populations, cell viability of CD38−/CD45− and CD38−/CD45+ cells were analyzed within the MM patient sample bone marrow aspirate (FIG. 6G). […] Lastly, compound 20 was also found to sensitize MM.15 cells to a dose range of the alkylating agent melphalan (Mel) that was assessed in a 72 hr treatment period (FIG. 6H).

Series [3] has as its system JJN3 cells. Kind of series: 2-[3H]deoxyglucose uptake in JJN3 cells. It counts as cell-based. The following applies: 20 μM, 6 min pre-treatment, 6 min uptake at 37 degrees C; compared with GLUT4 shRNA. How it is done:
(§5) Tissue culture plates were pretreated with 25 μg/ml polyethyleneimine (Fluka, catalogue number P3143) in 150 mM NaCl for 20min to let cells adhere. JNN3 cells were subsequently plated and grown to 40-60% confluency in complete RPMI 1640 medium. HEK293 GLUT overexpressing cells were plated at 400,000 cells/ml overnight. Cells were then washed with glucose-free HEPES buffer twice and starved for 30 min. The uptake of 2-[^3H] deoxy-D-glucose (2-DOG) (50 μM) was measured in glucose-free HEPES buffer for 4-6 min at 37° C. Compound 20 (20 μM) was added 5-6 min prior to the addition of glucose depending on the specific assay. For the HEK293 GLUT overexpressing cells, non-specific uptake was measured in non-transfected HEK293 cells containing the shRNA GLUT1 knockdown and was subtracted from the experimental values. Data are plotted as percent uptake relative to unexposed HEK293 cultures. Data were normalized to fit by nonlinear regression analysis using GraphPad Prism software.
(§6) Impact of compound 20 was evaluated on glucose uptake in MM cells.

Series [4] has as its system KMS11 cells. The experiment in a line: Cell viability by AnnexinV/DAPI staining and flow cytometry in KMS11 cells. It counts as cell-based. The following applies: compared with compounds 8, 9, 17. The method, then:
as §2
They were selected and their effect on cell viability evaluated by AnnexinV/DAPI staining and flow cytometric analysis.
(In flow cytometry, cells or beads pass a laser one at a time.)

Series [5] deals with KMS11-GFP cells. The experiment in a line: Proliferation of KMS11-GFP myeloma cells (Cell Titre Glo). It counts as cell-based. The method, then:
as §2
(§7) Compound were selected as a lead based on its low IC50, selectivity for inhibition of glucose transport through GLUT4, and inhibition of the KMS11-GFP cell line proliferation in contrast to the GLUT1 expressing isogenic line. Compounds were assessed in a high-throughput proliferation-based assay using an isogenic MM (KMS11) cell line pair overexpressing GLUT1 or GFP (as a control) (model of screen is depicted in FIG. 2A). […] Isogenic KMS11-GFP/GLUT1 overexpressing myeloma cell lines were treated with a dose range of the indicated test compound for 72 hours followed by evaluation of viable cell number by Cell Titre Glo assay

The target of series [6] is T1, GLUT4 (Homo sapiens, UniProt P14672).
T1 construct: expressed in transfected cells; host or cells: HEK293 stably expressing GLUT1 shRNA
T1 sequence (P14672 1-509): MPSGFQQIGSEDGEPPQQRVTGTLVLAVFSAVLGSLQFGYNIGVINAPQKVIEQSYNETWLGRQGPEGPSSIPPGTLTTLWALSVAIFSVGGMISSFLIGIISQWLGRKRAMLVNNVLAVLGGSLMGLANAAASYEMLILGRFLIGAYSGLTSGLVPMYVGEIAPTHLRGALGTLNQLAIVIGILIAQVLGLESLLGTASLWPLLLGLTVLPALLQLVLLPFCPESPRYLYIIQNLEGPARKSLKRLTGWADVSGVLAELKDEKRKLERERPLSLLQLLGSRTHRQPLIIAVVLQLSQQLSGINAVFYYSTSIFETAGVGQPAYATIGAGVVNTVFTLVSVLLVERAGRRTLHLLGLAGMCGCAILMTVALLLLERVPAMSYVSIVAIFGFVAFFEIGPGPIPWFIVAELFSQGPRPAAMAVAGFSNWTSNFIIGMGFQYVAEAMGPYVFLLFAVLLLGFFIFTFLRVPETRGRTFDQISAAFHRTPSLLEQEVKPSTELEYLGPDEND
Kind of series: 2-DOG transport in HEK293 cells over-expressing GLUT4. It counts as cell-based. To be noted: for IC50: pre-treated 5 minutes, 2-DOG uptake 4 min, cells lacking GLUT1, read-out: IC50 (inhibition of 2-DOG transport in HEK cells over-expressing GLUT isoforms) GLUT4. How it is done: as §5
(§8) Compound 20 was further screened for GLUT4 selectivity by evaluating inhibition of glucose transport in HEK 293 cells exogenously over-expressing human GLUTs-1, -2, -3, -4, or -8 that also stably express GLUT1 shRNA (except the GLUT1 overexpressing cell line) to knock down endogenous GLUT1.
(§9) Glucose transport in HEK293 cells over-expressing GLUT1 or over-expressing GLUT4 or GLUT8 in cells lacking GLUT1 were used to evaluate inhibition of glucose transport. Cells were pre-treated with compound for 5 minutes followed by evaluation of […] uptake for 4 min at […]. Non-specific uptake was measured in nontransfected HEK293 cells containing the shRNA GLUT1 knockdown and was subtracted from the experimental values.

For series [7], the system named is MCL-1. The experiment in a line: Immunoblot of MCL-1 expression in MM cells. To be noted: L363 cells vs JJN3, 15 μM for 18 hours. It counts as cell-based.
Series [8] has as its system JJN3 cells. The experiment in a line: Cell death with ABT-199 co-treatment in JJN3 cells (AnnexinV/DAPI). It counts as cell-based. The following applies: co-treatment with ABT-199. The method, then:
as §1, §2, §3

In series [9] the test system is follower lung cancer cell. The experiment in a line: Follower lung cancer cell invasion. It counts as cell-based. The following applies: FIG. 7.
Series [10] concerns KMS11-GLUT1 cells. Kind of series: Proliferation of KMS11-GLUT1 myeloma cells (Cell Titre Glo). It counts as cell-based. To be noted: inhibition of proliferation, 72 hours. The method, then: as §2, §7
Series [11] concerns CD38+/CD45- gated myeloma cells from myeloma patient bone marrow aspirates. Kind of series: Cell death of myeloma cells from MM patient bone marrow aspirates. It counts as cell-based, human. How it is done: CD38-phyocerythrin and CD45-allophycocyanin-Cy7 positive myeloma cells were evaluated for cell death.
as §4, with “tested.” for “tested. Compound 20 treated MM.1S cells were exposed to a dose range of Dex (0.00195 μM to 1 μM) for 72 hr (FIG. 6E).”

Series [12] concerns L363 cells. Kind of series: Cell death with ABT-199 co-treatment in L363 cells (AnnexinV/DAPI). To be noted: 10 μM with 0.025 μM-3 μM ABT-199, 72 hours. It counts as cell-based. How it is done:
Compound 20 decreasing MCL-1 expression and sensitizing MM cell lines to Venetoclax (ABT-199),
as §1
as §2, with “Data analysis was per-formed with the FCS express version 3 (De Novo software, Los Angeles).” left out
as §3

Series [13] deals with JJN3 cells expressing GLUT4 shRNA. The experiment in a line: Viability/proliferation of JJN3 cells with GLUT4 shRNA (trypan blue, cell counter). The following applies: 15 μM, 72 hours. It counts as cell-based. How it is done:
as §2, §6

The test system of series [14] is FAK. The experiment in a line: FAK activation, scratch assay. It counts as cell-based. To be noted: FIG. 8.
The test system of series [15] is H1299 cell. Kind of series: H1299 cell invasion. It counts as cell-based, human. The following applies: FIG. 9.
In series [16] the target is T2, GLUT8 (Homo sapiens, UniProt Q9NY64).
T2 construct: expressed in transfected cells; host or cells: HEK293 stably expressing GLUT1 shRNA
T2 sequence (Q9NY64 1-477): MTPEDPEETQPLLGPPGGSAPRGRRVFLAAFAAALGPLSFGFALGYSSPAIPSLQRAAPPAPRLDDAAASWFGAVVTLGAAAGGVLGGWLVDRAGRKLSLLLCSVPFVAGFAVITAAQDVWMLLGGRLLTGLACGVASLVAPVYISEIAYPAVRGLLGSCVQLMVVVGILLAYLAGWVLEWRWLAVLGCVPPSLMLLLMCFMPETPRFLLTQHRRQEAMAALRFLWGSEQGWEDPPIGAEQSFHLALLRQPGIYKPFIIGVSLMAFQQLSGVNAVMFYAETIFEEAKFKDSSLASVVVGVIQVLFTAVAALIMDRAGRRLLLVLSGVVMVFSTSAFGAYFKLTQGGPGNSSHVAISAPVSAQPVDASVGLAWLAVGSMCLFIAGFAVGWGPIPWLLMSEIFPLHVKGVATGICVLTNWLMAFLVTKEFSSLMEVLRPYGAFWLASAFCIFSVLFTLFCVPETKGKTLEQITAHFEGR
Kind of series: 2-DOG transport in HEK293 cells over-expressing GLUT8. It counts as cell-based. To be noted: pre-treated 5 minutes, 2-DOG uptake 4 min; cells lacking GLUT1; read-out: IC50 (inhibition of 2-DOG transport in HEK cells over-expressing GLUT isoforms) GLUT8. The method, then:
as §5, §8, §9

With `COc1ccc(CC(=O)N(Cc2ccncc2)Cc2cccc(OCCc3ccc(F)cc3)c2)cc1` [Compound 20, N-(3-(4-fluorophenethoxy)benzyl)-2-(4-methoxyphenyl)-N-(pyridin-4-ylmethyl)acetamide], the “sensitization to melphalan (Mel)” value in series [1] (10 μM with 0.01 μM-4 μM melphalan) is listed as “sensitize”. Further, the “sensitization to dexamethasone (Dex), cell death in MM.1S” value in series [1] (10 μM with Dex 0.00195 μM to 1 μM) is “significant sensitization and cell death”. Further, the “viability of normal non-myeloma cell populations” value in series [2] is on record as “did not impact the viability”. For the same compound, the “2-DOG uptake in JJN3 cells” value in series [3] is “effectively reduced”. Also, in series [4], the “cell death in KMS11 cells” value is on record as “greater cell death”. Also, the EC50 was found to be 13.4 µM in series [5] (inhibition of proliferation, 72 hours, Cell Titre Glo) and 21.8 µM in [10]. Besides, the “impact on proliferation in KMS11-GFP cells compared with KMS11-GLUT1 cells” value in series [5] (isogenic cell line pair) is “greater impact on proliferation in KMS11-GFP cells”. In series [6] (HEK 293 cells over-expressing human GLUTs, 4 minute uptake of 2-DOG), the “selectivity of glucose transport inhibition among human GLUTs-1, -2, -3, -4, -8” value was “selective for GLUT4 over GLUTs 1, 2, 3 and 8”. In addition, the IC50 in series [6] stood at 18.2 µM. In addition, in series [7], the MCL-1 expression result is reported as “significantly reduced”. In addition, in series [8], the “sensitivity to ABT-199, JJN3 cell line” value is recorded as “increased sensitivity to ABT-199”. For the same compound, in series [9], the “follower lung cancer cell invasion” value is “inhibits follower lung cancer cell invasion”. Moreover, the “sensitization of MM patient samples to combination with dexamethasone” value in series [11] (0.5 μM dexamethasone and 10 μM compound 20, 48 hr) was “sensitized”. Besides, in series [11] (10 μM with 0.5 μM ABT-199, 48 hrs), the “relapse/refractory patient samples with greater apoptosis on co-treatment with ABT-199 than either drug alone” value is given as 4 of 7. In addition, the “sensitivity to ABT-199, L363 cell line” value in series [12] is reported as “increased sensitivity to ABT-199”. The “viable cell counts in GLUT4 knockdown cells” value in [13] was “no further reduction”. In addition, the FAK activation result in [14] was “inhibits FAK activation”.

For `COc1ccc(C(=O)N(Cc2ccncc2)Cc2cccc(OCCc3ccc(F)cc3)c2)cc1` [Compound 26], the results for the IC50 in series [6] and in [16] were 3.5 µM and 6 µM, respectively. Further, the H1299 cell invasion result in series [15] is “inhibits H1299 cell invasion”.
